Reference: US20030003396A1, “Optical data carrier comprising a merocyanine dye as light-absorbent compound in the information layer” (priority 2001, published 2003)

How the values were obtained:
[1] = Solubility in coating solvent
[2] = UV absorption spectra measured in solution; assay type: physicochemical; details: for ε (molar extinction coefficient): at absorption maximum; for λ1/2-λ1/10: short wavelength flank
Excerpt: In the case of a write-once optical data carrier according to the invention which is written on and read by means of the light of a blue laser, preference is given to merocyanine dyes whose absorption maximum λmax1 is in the range from 340 to 410 nm, […] half of the […] one tenth of the absorbance value at λmax1 are preferably not more than 50 nm apart. Such a merocyanine dye preferably has no longer-wavelength maximum λmax2 up to a wavelength of 500 nm, particularly preferably up to 550 nm, very particularly preferably up to 600 nm.
The absorption spectra are measured, for example, in solution.
Suitable merocyanines having the required spectral properties are, in particular, those in which the dipole moment change Δμ=|μg−μag|, i.e. the positive difference between the dipole moments in the ground state and in the first excited state, is very small, preferably <5 D, particularly preferably <2 D. A method of determining such a dipole moment change Δμ is described, for example, in F. Würthner et al., Angew. Chem. 1997, 109, 2933, and in the literature cited therein. A low solvent-induced wavelength shift (dioxane/DMF) is likewise a suitable selection criterion. Preference is given to merocyanines whose solvent-induced wavelength shift Δλ=|λDMF−λdioxane|, i.e. the positive difference between the absorption wavelengths in the solvents dimethylformamide and dioxane, is <20 nm, particularly preferably <10 nm, very particularly preferably <5 nm

[3] = in TFP (2,2,3,3-tetrafluoropropanol)

Structure (SMILES): CCOC(=O)C1=C(C#N)C(=O)N(C)C(=O)/C1=C/C=C/N(C)C [Example 2]
- Solubility [1, 3]: > 2%
- ε (molar extinction coefficient) [2]: 31630 L/mol/cm
- UV λmax ([2]; in DMF): 567 nm
- UV λmax ([2]; in dioxane): 542 nm
- λ1/2-λ1/10 [2]: 42 nm
- Δλ (solvent-induced wavelength shift) ([2]; |λDMF−λdioxane|): 25 nm

Structure (SMILES): CC1=C([n+]2ccccc2)C(=O)NC(=O)/C1=C/C=C1\N(C)c2ccccc2C1(C)C [Example 3]
- Solubility [1, 3]: > 2%
- ε (molar extinction coefficient) [2]: 86510 L/mol/cm
- UV λmax ([2]; in methanol): 513 nm
- λ1/2-λ1/10 [2]: 38 nm

Structure (SMILES): CCCCCCCCCCCCN1C(=O)/C(=C/c2ccc(N(C)C)o2)C(=O)N(C)C1=O [Example 4]
- Solubility ([1]; in benzyl alcohol): > 1%
- ε (molar extinction coefficient) [2]: 53360 L/mol/cm
- UV λmax ([2]; in dioxane): 483 nm
- λ1/2-λ1/10 [2]: 32 nm
